The text below walks through data of patent US12678490B2, “Pharmaceutical combinations comprising insulin and at least an agent selected from meloxicam, bromfenac sodium, acetylsalicylic acid, salicyclic acid and paracetamol” (Eli Lilly and Company, priority 2017, dated 2026).

Each structure is given as a SMILES string.

Data set [1] deals with plasma glucose. As to the kind of experiment: Pre-clinical in vivo CSII model, local or oral dexamethasone with insulin lispro bolus. The arrangement: species or system Yucatan mini pigs. To be noted: for Baseline-adjusted area under the curve for plasma glucose over the 6 hours following an insulin bolus: 0.15 U/kg U100 insulin lispro bolus, mean ± SEM; for improving infusion site viability: local delivery, 0.25 mg/h (6 mg/d).

Data set [2] is described as follows: Insulin lispro co-formulation stability, main peak loss and HMWP growth by analytical RP-HPLC. Type of data set: physicochemical. Conditions: co-formulated with insulin lispro, 37° C. On the procedure: Two separate formulations are prepared as described above with 20 mM acetylsalicylic acid or 90 mM paracetamol; however, the m-cresol is excluded from the formulation. All samples are adjusted with water to achieve the final concentrations. […] All samples are filtered using 0.22 um syringe filter ([…]). […] The samples are visibly inspected for particulate or precipitation throughout study. Insulin lispro main peak loss and HMWP growth are tracked over time using HPLC. […] The UV detector is set to 214 nm wavelength, column temperature to 40° C., flowrate to 1 mL/min, and injection volume to 5 uL of each formulation. […] The data is collected and slope analysis of rate of change per day is performed using Y by X plots using commercial software.

Regarding `C[C@@H]1C[C@H]2[C@@H]3CCC4=CC(=O)C=C[C@]4(C)[C@@]3(F)[C@@H](O)C[C@]2(C)[C@@]1(O)C(=O)CO` [Dexamethasone, (8S,9R,10S,11S,13S,14S,16R,17R)-9-fluoro-11,17-dihydroxy-17-(2-hydroxyacetyl)-10,13,16-trimethyl-6,7,8,11,12,14,15,16-octahydrocyclopenta[a]phenanthren-3-one], the “Baseline-adjusted area under the curve for plasma glucose over the 6 hours following an insulin bolus” value is recorded as −14218 ± 754 in data set [1] (Oral: 25 uL/h insulin placebo + twice daily oral 3 mg dexamethasone, day 0); −5265 ± 2130 in data set [1] (Oral: 25 uL/h insulin placebo + twice daily oral 3 mg dexamethasone, day 3); −8109 ± 987 in data set [1] (Oral: 25 uL/h insulin placebo + twice daily oral 3 mg dexamethasone, day 5); −7750 ± 1491 in data set [1] (Oral: 25 uL/h insulin placebo + twice daily oral 3 mg dexamethasone, day 7); −4266 ± 1551 in data set [1] (Oral: 25 uL/h insulin placebo + twice daily oral 3 mg dexamethasone, day 10); −16700 ± 2027 in data set [1] (Subcutaneous: continuous infusion of 0.25 mg/h dexamethasone, day 0). For the same compound, the “Baseline-adjusted area under the curve for plasma glucose over the 6 hours following an insulin bolus” value is on record as −12591 ± 873 in data set [1] (Subcutaneous: continuous infusion of 0.25 mg/h dexamethasone, day 3); −12297 ± 755 in data set [1] (Subcutaneous: continuous infusion of 0.25 mg/h dexamethasone, day 5); −7149 ± 1555 in data set [1] (Subcutaneous: continuous infusion of 0.25 mg/h dexamethasone, day 7); −4893 ± 775 in data set [1] (Subcutaneous: continuous infusion of 0.25 mg/h dexamethasone, day 10). In addition, the entries for the “improving infusion site viability” value in data set [1] and in data set [1] (listed as dexamethosone) were “up to 5 days” and 5 days, respectively. Also, in data set [1] (orally delivered), the “effect on infusion site viability” value is reported as “no effect”.

For the compound `CC(=O)Oc1ccccc1C(=O)O` [acetylsalicylic acid, 2-acetoxybenzoic acid], in data set [2], the “impact on insulin lispro stability” value is listed as “minimal impact on insulin lispro stability”.

For the compound `CC(=O)Nc1ccc(O)cc1` [paracetamol, N-(4-hydroxypehnyl)acetamide], the “impact on insulin lispro stability” value in data set [2] is listed as “minimal impact on insulin lispro stability”.
